How the values were obtained:
[1] = target: T1, HIV-1 integrase (Human immunodeficiency virus type 1 group M subtype B, UniProt P04585); assay: Overall integrase assay (ELISA); format: biochemical; details: concentration required to inhibit the in vitro overall integrase activity by 50%; read-out: IN enzymatic activity (IC50) Overall
T1 construct: To determine the susceptibility of the HIV-1 integrase enzyme towards different compounds
From the text: (§1) Overall integrase assay using an enzyme-linked immunosorbent assay (ELISA): To determine the susceptibility of the HIV-1 integrase enzyme towards different compounds we used enzyme-linked immunosorbent assays. These assays use an oligonucleotide substrate of which one oligonucleotide (5’-[…]-3’) is labeled with biotin at the 3’ end and the other oligonucleotide is labeled with digoxigenin at the 5’ end. For the overall integration assay the second 5’-digoxigenin labeled oligonucleotide is (5’-[…] […]-3’). For the Strand Transfer assay the second oligonucleotide lacks GT at the 3’ end. The integrase enzyme was diluted in 750 mM NaCl, 10 mM Tris pH 7.6, 10% glycerol, and 1 mM β-mercaptoethanol. To perform the reaction, diluted integrase (4 µL, corresponding to a concentration of 1.6 µM) and annealed oligonucleotides (4 µL, 7 nM) were added in a final reaction volume of 40 µL containing 10 mM MgCl2, 5 mM DTT, 20 mM HEPES pH 7.5, 5% PEG, and 15% DMSO. The reaction was carried out for 1 h at 37 °C. Reaction products were denatured with 30 mM NaOH and detected by an immunosorbent assay on avidin-coated plates.

[2] = target: T2, HIV-1 integrase (strand transfer step) (Human immunodeficiency virus type 1 group M subtype B, UniProt P04585); assay: Strand transfer assay (ELISA); format: biochemical; details: concentration required to inhibit the in vitro strand transfer step by 50%; read-out: IN enzymatic activity (IC50) ST
T2 construct: To determine the susceptibility of the HIV-1 integrase enzyme towards different compounds
From the text: as §1

[3] = system: HIV(IIIB) strain in MT-4 cells; assay: MT-4/MTT assay, HIV-induced cytopathic effect; format: cell-based, HIV-1; details: for EC50: Human immunodeficiency virus 1, IIIB, MT4, 50% protection against CPE of HIV, read-out: EC50 against HIV-1 replication in cell cultures
Description: In vitro anti-HIV and drug susceptibility assays: The inhibitory effect of antiviral drugs on the HIV-induced cytopathic effect (CPE) in human lymphocyte MT-4 cell culture was determined by the MT-4/MTT-assay. This assay is based on the reduction of the yellow 3-(4,5-dimethylthiazol-2-yl)-2,5-diphenyltetrazolium bromide (MTT) by mitochondrial dehydrogenase of metabolically active cells to a blue formazan derivative, which can be measured spectrophotometrically. The 50% cell culture infective dose (CCID50) of the HIV(IIIB) strain was determined by titration of the virus stock using MT-4 cells. For the drug-susceptibility assays, MT-4 cells were infected with 100–300 CCID50 of the virus stock in the presence of fivefold serial dilutions of the antiviral drugs. The concentration of the various compounds that achieved 50% protection against the CPE of the different HIV strains, which is defined as the EC50, was determined. In parallel, the 50% cytotoxic concentration (CC50) was determined.

[4] = system: HIV-IN; parameters: method as in PMID 19385721, PMID 20112170; details: HIV-IN inhibitor; cited from earlier work

Row | Compound | IC50 [1] | IC50 [2] | EC50 [3] | selectivity index (SI) ([3]; ratio of EC50 and CC50 values) | melting point | IC50 [4]
1 | COc1cccc2c1c(C(=O)/C=C(\O)C(=O)O)cn2Cc1ccc(F)cc1 [CHI-1043, reference compound] | 0.08 ± 0.003 µM | 0.14 ± 0.11 µM | – | – | – | –
2 | COc1cccc2c1c(C(=O)C=C(O)C(=O)O)cn2Cc1ccccc1C [Compound 7a, 4-[1-(2-Methylbenzyl)-4-methoxy-1H-indol-3-yl]-2-hydroxy-4-oxobut-2-enoic acid] | 1.74 ± 1.32 µM | 1.07 ± 0.76 µM | 1.74 µM | 43 | 164 to 166 °C | –
3 | COc1cccc2c1c(C(=O)C=C(O)C(=O)O)cn2Cc1cccc(C)c1 [Compound 7b, 4-[1-(3-Methylbenzyl)-4-methoxy-1H-indol-3-yl]-2-hydroxy-4-oxobut-2-enoic acid] | 0.42 ± 0.29 µM | 1.36 ± 0.64 µM | 2.14 µM | – | 150 to 152 °C | –
4 | COc1cccc2c1c(C(=O)C=C(O)C(=O)O)cn2Cc1ccc(C)cc1 [Compound 7c, 4-[1-(4-Methylbenzyl)-4-methoxy-1H-indol-3-yl]-2-hydroxy-4-oxobut-2-enoic acid] | 5.76 ± 1.82 µM | 8.84 ± 5.6 µM | – | – | 141 to 143 °C | –
5 | COc1cccc2c1c(C(=O)C=C(O)C(=O)O)cn2Cc1cccc(C)c1C [Compound 7d, 4-[1-(2,3-Dimethylbenzyl)-4-methoxy-1H-indol-3-yl]-2-hydroxy-4-oxobut-2-enoic acid] | 2.61 ± 1.17 µM | 6.79 ± 0.64 µM | 1.74 µM | – | 160 to 162 °C | –
6 | COc1cccc2c1c(C(=O)C=C(O)C(=O)O)cn2Cc1ccc(C)cc1C [Compound 7e, 4-[1-(2,4-Dimethylbenzyl)-4-methoxy-1H-indol-3-yl]-2-hydroxy-4-oxobut-2-enoic acid] | 51.8 ± 33.8 µM | 55.9 ± 43.8 µM | – | – | 143 to 145 °C | –
7 | COc1cccc2c1c(C(=O)C=C(O)C(=O)O)cn2Cc1cc(C)ccc1C [Compound 7f, 4-[1-(2,5-Dimethylbenzyl)-4-methoxy-1H-indol-3-yl]-2-hydroxy-4-oxobut-2-enoic acid] | 3.83 ± 2.21 µM | 9.47 ± 1.06 µM | – | – | 163 to 165 °C | –
8 | COc1cccc2c1c(C(=O)C=C(O)C(=O)O)cn2Cc1c(C)cccc1C [Compound 7g, 4-[1-(2,6-Dimethylbenzyl)-4-methoxy-1H-indol-3-yl]-2-hydroxy-4-oxobut-2-enoic acid] | 7.34 ± 1.32 µM | 23.5 ± 17.8 µM | – | – | 173 to 175 °C | –
9 | COc1cccc2c1c(C(=O)C=C(O)C(=O)O)cn2Cc1cc(C)cc(C)c1 [Compound 7h, 4-[1-(3,5-Dimethylbenzyl)-4-methoxy-1H-indol-3-yl]-2-hydroxy-4-oxobut-2-enoic acid] | 7.69 ± 5.59 µM | 5.49 ± 2.67 µM | – | – | 120 to 122 °C | –
10 | COc1cccc2c1c(C(=O)C=C(O)C(=O)O)cn2Cc1cc(C)c(F)c(C)c1 [Compound 7i, 4-[1-(4-Fluoro-3,5-dimethylbenzyl)-4-methoxy-1H-indol-3-yl]-2-hydroxy-4-oxobut-2-enoic acid] | 2.17 ± 1.65 µM | 5.24 ± 1.34 µM | – | – | 153 to 155 °C | –
11 | Cc1nnc(C(=O)NC(C)(C)c2nc(C(=O)NCc3ccc(F)cc3)c(O)c(=O)n2C)o1 [raltegravir] | – | – | – | – | – | 0.0068 µM
